Measurements reported in US8063225B2, “Tricyclic compound derivatives useful in the treatment of neoplastic diseases, inflammatory disorders and immunomodulatory disorders” (Chembridge Corporation, priority 2006, dated 2011).

Assays:
IGF1R tyrosine kinase = molecular target: T1, IGF1R tyrosine kinase (Homo sapiens, UniProt P08069); assay: IGF1R tyrosine kinase assay (Kinase-Glo ATP depletion or PT66/PT100 AlphaScreen); settings: biochemical tyrosine kinase assay
T1 construct: 6×His- or GST-tagged kinase domain fragments of the corresponding RTKs expressed in baculovirus system; host or cells: baculovirus system
T1 sequence (P08069 999-1274 limits assumed): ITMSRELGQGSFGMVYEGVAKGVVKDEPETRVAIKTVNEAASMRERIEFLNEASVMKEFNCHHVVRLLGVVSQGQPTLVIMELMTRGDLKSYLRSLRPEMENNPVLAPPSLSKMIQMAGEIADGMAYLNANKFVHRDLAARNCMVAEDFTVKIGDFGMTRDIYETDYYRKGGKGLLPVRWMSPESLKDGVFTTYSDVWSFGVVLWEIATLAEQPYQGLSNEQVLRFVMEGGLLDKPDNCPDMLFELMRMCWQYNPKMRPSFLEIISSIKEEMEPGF
Method in brief: (§1)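 In the AlphaScreen version, kinase domain, biotinylated poly(Glu-Tyr) and 10 μM ATP react 30 minutes at room temperature, then PT66 or PT100 beads are added for a further 60 minutes. Buffer is Tris-HCl pH 7.5 with MgCl2, MnCl2, DTT and Tween 20.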

K562 = assay: Cell proliferation inhibition, Cell Titer-Glo, K562; format: cell-based; settings: Homo sapiens; cell proliferation assay, K562 cells
Method in brief: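 Proliferation inhibition in human K562 cells was assessed in a standard 3-day assay. Cells (2500-5000 per well) in 384-well white, clear-bottomed plates received serial compound dilutions, then Cell Titer-Glo reagent was added per the manufacturer's protocol. Luminescence reflecting ATP content of metabolically active cells was counted in a multiwell reader, and IC50 curves were generated.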

Alk = molecular target: T2, Alk (Homo sapiens, UniProt Q9UM73); assay: Tyrosine kinase assay (Kinase-Glo or AlphaScreen), Alk; settings: biochemical tyrosine kinase assay
T2 construct: 6×His- or GST-tagged kinase domain fragments of the corresponding RTKs expressed in baculovirus system; host or cells: baculovirus system
T2 sequence (Q9UM73 1116-1392 limits assumed, species assumed): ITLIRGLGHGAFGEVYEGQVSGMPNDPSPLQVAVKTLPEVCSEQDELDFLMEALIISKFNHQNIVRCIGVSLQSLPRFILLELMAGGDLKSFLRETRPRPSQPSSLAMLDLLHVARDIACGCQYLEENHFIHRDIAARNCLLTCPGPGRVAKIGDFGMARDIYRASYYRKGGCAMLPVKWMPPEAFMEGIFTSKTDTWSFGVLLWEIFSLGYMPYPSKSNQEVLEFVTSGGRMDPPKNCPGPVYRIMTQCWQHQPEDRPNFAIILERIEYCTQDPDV
Method in brief: as §1

Jak2 = molecular target: T3, Jak2 (Homo sapiens, UniProt O60674); assay: Tyrosine kinase assay (Kinase-Glo or AlphaScreen), Jak2; settings: biochemical tyrosine kinase assay
T3 construct: 6×His- or GST-tagged kinase domain fragments of the corresponding RTKs expressed in baculovirus system; host or cells: baculovirus system
T3 sequence (O60674 849-1124 limits assumed, species assumed): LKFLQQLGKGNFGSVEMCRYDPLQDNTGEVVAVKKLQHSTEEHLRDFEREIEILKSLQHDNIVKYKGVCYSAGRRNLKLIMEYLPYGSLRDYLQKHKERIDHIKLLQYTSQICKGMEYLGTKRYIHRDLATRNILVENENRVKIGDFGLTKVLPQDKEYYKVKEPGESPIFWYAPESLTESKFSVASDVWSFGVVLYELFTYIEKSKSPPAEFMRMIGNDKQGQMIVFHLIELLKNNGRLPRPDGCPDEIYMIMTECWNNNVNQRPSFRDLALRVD
Method in brief: as §1

Ba/F3 = assay: Cell proliferation inhibition, Cell Titer-Glo, Ba/F3; format: cell-based; settings: Mus musculus, BaF3; cell proliferation assay, Ba/F3 cells
Method in brief: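 This standard 3-day proliferation assay used Ba/F3 cells plated in 384-well white plates with clear bottoms at 2500-5000 cells per well and treated with compound dilutions. Viable cell number was determined by mixing in Cell Titer-Glo developing reagent according to the manufacturer's protocol and counting luminescence. Percent viability relative to day 0 and untreated wells produced IC50 curves.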

H929 (multiple myeloma) = assay: Cell proliferation inhibition, Cell Titer-Glo, H929; format: cell-based; settings: Homo sapiens, NCI-H929; cell proliferation assay, H929 cells
Procedure: IGF1R and other tyrosine kinase inhibitors can inhibit the proliferation of certain cancer cell lines indicating their possible therapeutic utility for treating the corresponding cancer types. Cancer cell lines of interest and control normal lines, including CHO, HEK293, BA/F3, MM1, H929, COLO205, PC3, DU145, MCF7, Panc1, ACHN, Hep G2, H460, K562, TT, U87-G, CAOV-3, SK-MEL5, Karpas 299, are plated in white, clear-bottomed 384-well cell culture plates at 2500-5000 cells per well and supplied with dilutions of tested compounds After a desired period of time (typically 3 days), the number of viable cells is quantitated by using Cell Titer-Glo Luminescent Cell Viability Assay (Promega), a cell proliferation assay system based on detection of total amount of ATP present as a measure of cell metabolic activity. The plated cells are mixed with the Cell Titer-Glo developing reagent and counted in a luminescence multiwell plate reader according to the standard manufacturer's protocol to generate IC50 curves for cell proliferation inhibition.
IGF1R and other tyrosine kinase inhibitors can inhibit the proliferation of certain cancer cell lines indicating their possible therapeutic utility for treating the corresponding cancer types. Cancer cell lines of interest and control normal lines, including CHO, HEK293, BA/F3, COLO205, PC3, DU145, MCF7, Panc1, ACHN, Hep G2, H460, K562, TT, U87-MG, CAOV-3, SK-MEL5, Karpas 299 and human multiple myeloma cell lines H929, MM1s, MM1r, UTMC2, CPM2, KMS11, My5, KMS12PE, My7, JJN3, KMS18, U266, SKMM2, RPMI-8226 are plated in white, clear-bottomed 384-well cell culture plates at 2500-5000 cells per well and supplied with dilutions of tested compounds After a desired period of time (typically 3 days), the number of viable cells is quantitated by using Cell Titer-Glo Luminescent Cell Viability Assay (Promega), a cell proliferation assay system based on detection of total amount of ATP present as a measure of cell metabolic activity. The plated cells are mixed with the Cell Titer-Glo developing reagent and counted in a luminescence multiwell plate reader according to the standard manufacturer's protocol to generate IC50 curves for cell proliferation inhibition. Results are typically reported as percent of growth (% viability =(OD72h(compound)−ODday0))/(OD72h(no compound)−ODday0). Alternatively, viable cells are quantitated by using the conventional colorimetric MTT assay. The MTT assay is based on the cleavage of the yellow tetrazolium salt MTT to purple formazan crystal by metabolic active cells. The formazan is then solubilized, and the concentration determined by optical density at 570 nm. The cells plated and incubated with a compound as described above are supplemented with the solution of MTT and incubated for 2-3 hours. The growth medium is removed and dimethyl sulfoxide is added into each well to dissolve the formazan. The absorbance is measured on an ELISA plate reader with a test wavelength of 570 nm and a background subtraction wavelength of 630 nm to obtain sample signal (OD570-OD630). […] The results are reported in terms of IC50 value for a particular compound and a cell line in the standard 3-day proliferation assay using Cell Titer-Glo. […] The results are reported in terms of IC50 value for a particular compound and a cell line in the standard 3-day proliferation assay using MTT assay.

InsR = molecular target: T4, InsR (Homo sapiens, UniProt P06213); assay: Tyrosine kinase assay (Kinase-Glo or AlphaScreen), InsR; settings: biochemical tyrosine kinase assay
T4 construct: 6×His- or GST-tagged kinase domain fragments of the corresponding RTKs expressed in baculovirus system; host or cells: baculovirus system
T4 sequence (P06213 1023-1298 limits assumed, species assumed): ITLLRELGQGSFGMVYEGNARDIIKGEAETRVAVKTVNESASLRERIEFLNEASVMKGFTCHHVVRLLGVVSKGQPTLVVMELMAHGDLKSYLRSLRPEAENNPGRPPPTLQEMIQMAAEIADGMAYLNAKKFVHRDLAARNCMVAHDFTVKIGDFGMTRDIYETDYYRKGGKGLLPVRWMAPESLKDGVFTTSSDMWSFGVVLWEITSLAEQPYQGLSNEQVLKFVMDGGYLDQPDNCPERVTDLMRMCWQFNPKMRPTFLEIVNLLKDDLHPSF
Method in brief: as §1

Karpas-299 = assay: Cell proliferation inhibition, Cell Titer-Glo, Karpas-299; format: cell-based; settings: Homo sapiens; cell proliferation assay, Karpas-299 cells
Method in brief: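 In this standard 3-day proliferation assay, Karpas 299 cells plated at 2500-5000 cells per well in 384-well white, clear-bottomed plates were treated with compound dilutions. Cell Titer-Glo developing reagent was added following the manufacturer's protocol, luminescence reflecting ATP content was read on a multiwell plate reader, and IC50 curves were generated.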

| Compound | IC50 (IGF1R tyrosine kinase) [µM] | IC50 (K562) [µM] | IC50 (Alk) [µM] | IC50 (Jak2) [µM] | IC50 (Ba/F3) [µM] | IC50 (H929 (multiple myeloma)) [µM] | IC50 (InsR) [µM] | IC50 (Karpas-299) [µM] |
| --- | --- | --- | --- | --- | --- | --- | --- | --- |
| CN1CCC(N2C(=O)c3cc4nc(-c5c(N[C@@H](CO)Cc6c[nH]cn6)cc[nH]c5=O)[nH]c4cc3C2=O)CC1 [compound 3] | 0.5 to 5 | 5 to 15 | 5 to 15 | > 15 | > 15 | 5 to 15 | 0.5 to 5 | 5 to 15 |
| O=C1c2cc3nc(-c4c(NC[C@@H](O)COc5c(F)ccc(Cl)c5F)cc[nH]c4=O)[nH]c3cc2C(=O)N1C1CCN(CCO)CC1 [compound 125] | < 0.5 | > 15 | 0.5 to 5 | 0.5 to 5 | > 15 | > 15 | 0.5 to 5 | > 15 |
| COc1ccc2c(ccn2C[C@H](O)CNc2cc[nH]c(=O)c2-c2nc3cc4c(cc3[nH]2)C(=O)N(C2CCN(C)CC2)C4=O)c1 [compound 113] | 0.5 to 5 | > 15 | < 0.5 | 0.5 to 5 | > 15 | > 15 | 0.5 to 5 | > 15 |
| COc1ccc(OCC(O)CNc2cc[nH]c(=O)c2-c2nc3cc4c(cc3[nH]2)C(=O)N(C2CCN(C)CC2)C4=O)cc1 (centres unmarked) [compound 42] | < 0.5 | 5 to 15 | 5 to 15 | 5 to 15 | > 15 | 5 to 15 | 0.5 to 5 | > 15 |
| CN1CCC(N2C(=O)c3cc4nc(-c5c(NCC(O)COc6cccc(Cl)c6)cc[nH]c5=O)[nH]c4cc3C2=O)CC1 (centres unmarked) [compound 38] | 0.5 to 5 | 5 to 15 | 0.5 to 5 | 0.5 to 5 | > 15 | 0.5 to 5 | 0.5 to 5 | > 15 |
| COc1ccccc1OCC(O)CNc1cc[nH]c(=O)c1-c1nc2cc3c(cc2[nH]1)C(=O)N(C1CCN(C)CC1)C3=O (centres unmarked) [compound 41] | 0.5 to 5 | 5 to 15 | 5 to 15 | 5 to 15 | 0.5 to 5 | 5 to 15 | 0.5 to 5 | 0.5 to 5 |
| CN1CCC(N2C(=O)c3cc4nc(-c5c(NNC(=O)C(O)c6ccccc6)ccnc5O)[nH]c4cc3C2=O)CC1 (centres unmarked) [compound 67] | > 15 | > 15 | 5 to 15 | 0.5 to 5 | > 15 |  | 5 to 15 | > 15 |
| COc1cc(F)ccc1OC[C@H](O)CNc1ccnc(O)c1-c1nc2cc3c(cc2[nH]1)C(=O)N(C1CCN(C)CC1)C3=O [compound 57] | 0.5 to 5 | 5 to 15 | 0.5 to 5 | 0.5 to 5 | 0.5 to 5 |  | 0.5 to 5 | 5 to 15 |

Second part, the compound after the results:

| IC50 (IGF1R tyrosine kinase) [µM] | IC50 (K562) [µM] | IC50 (Alk) [µM] | IC50 (Jak2) [µM] | IC50 (Ba/F3) [µM] | IC50 (H929 (multiple myeloma)) [µM] | IC50 (InsR) [µM] | IC50 (Karpas-299) [µM] | Compound |
| --- | --- | --- | --- | --- | --- | --- | --- | --- |
| > 15 | > 15 | > 15 | > 15 | > 15 | 0.5 to 5 | > 15 | > 15 | COCCN1C(=O)c2cc3nc(-c4c(NC[C@@H](O)c5cccc(Cl)c5)cc[nH]c4=O)[nH]c3cc2C1=O [compound 36] |
| 0.5 to 5 | 5 to 15 | 0.5 to 5 | 0.5 to 5 | 5 to 15 | 5 to 15 | 0.5 to 5 | 0.5 to 5 | CN1CCC(N2C(=O)c3cc4nc(-c5c(NCCc6c[nH]cn6)cc[nH]c5=O)[nH]c4cc3C2=O)CC1 [compound 4] |
| < 0.5 | 5 to 15 | 5 to 15 | 0.5 to 5 | 0.5 to 5 | 5 to 15 | 0.5 to 5 | 0.5 to 5 | Cc1ccc(OC[C@H](O)CNc2cc[nH]c(=O)c2-c2nc3cc4c(cc3[nH]2)C(=O)N(C2CCN(CCN(C)C)CC2)C4=O)c(C)c1 [compound 126] |
| < 0.5 | > 15 | 0.5 to 5 | 0.5 to 5 | > 15 | > 15 | 0.5 to 5 | > 15 | Cc1c(Cl)cccc1OC[C@H](O)CNc1cc[nH]c(=O)c1-c1nc2cc3c(cc2[nH]1)C(=O)N(C1CCN(CCN(C)C)CC1)C3=O [compound 127] |
| < 0.5 | 5 to 15 | 0.5 to 5 | 0.5 to 5 | 5 to 15 | 5 to 15 | < 0.5 | 5 to 15 | Cc1ccc(OC[C@H](O)CNc2cc[nH]c(=O)c2-c2nc3cc4c(cc3[nH]2)C(=O)N(C2CCN(CCCO)CC2)C4=O)c(C)c1 [compound 129] |
| 5 to 15 | 0.5 to 5 | > 15 | 0.5 to 5 | 5 to 15 | 5 to 15 | 5 to 15 | 0.5 to 5 | COc1cc(C#N)ccc1OC[C@H](O)CNc1ccnc(O)c1-c1nc2cc3c(cc2[nH]1)C(=O)N(C1CCN(C)CC1)C3=O [compound 90] |
| < 0.5 | > 15 | 5 to 15 | 0.5 to 5 | > 15 | > 15 | < 0.5 | 5 to 15 | Cc1ccc(OC[C@H](O)CNc2cc[nH]c(=O)c2-c2nc3cc4c(cc3[nH]2)C(=O)N(CC(C)(C)CN(C)C)C4=O)c(C)c1 [compound 116] |
| < 0.5 | > 15 | 0.5 to 5 | 0.5 to 5 | > 15 |  | 0.5 to 5 | > 15 | CN1CCC(N2C(=O)c3cc4nc(-c5c(NC[C@@H](O)COc6cccc(C#N)c6)ccnc5O)[nH]c4cc3C2=O)CC1 [compound 52] |
| < 0.5 | 5 to 15 | 0.5 to 5 | 0.5 to 5 | > 15 |  | 0.5 to 5 | 5 to 15 | CN1CCC(N2C(=O)c3cc4nc(-c5c(NC[C@@H](O)COc6ccc7c(c6)OCO7)ccnc5O)[nH]c4cc3C2=O)CC1 [compound 78] |
| 0.5 to 5 | 0.5 to 5 | < 0.5 | 0.5 to 5 | 0.5 to 5 |  | 0.5 to 5 | 0.5 to 5 | CN1CCC(N2C(=O)c3cc4nc(-c5c(N[C@@H](CO)Cc6ccccc6)cc[nH]c5=O)[nH]c4cc3C2=O)CC1 [compound 5] |
| > 15 | > 15 | > 15 | > 15 | > 15 |  | > 15 | > 15 | CC(C)CNCC(O)CNc1ccnc(O)c1-c1nc2cc3c(cc2[nH]1)C(=O)N(C1CCN(C)CC1)C3=O (centres unmarked) [compound 66] |
